Laboratory results: US10711004B2 (Genentech, Inc., priority 2018, dated 2020)
Like-named read-outs stand apart in the source and are kept apart here.

Biological target: human TRPA1 channel (Homo sapiens (Human), UniProt O75762)
Assay: hTRPA1 CHO Ca2+ FLIPR Tetra assay, block of cinnamaldehyde induced calcium influx
Format: cell-based
Settings: for IC50: CHO cells expressing TRPA1, Hill coefficient fixed to 1.5; for TRPA1 IC50 compared with 3-azabicyclo[3.1.0]hexene linker and cyclobutylene linker analogues: bicyclo[3.1.0]hexene linker compounds versus same-substituent analogues (compounds 16, 191; 26, 1)
In short: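 Calcium-dye-loaded TRPA1-expressing CHO cells in HBSS/20 mM HEPES pH 7.4, 0.02% BSA were preincubated with compound for 10 or 90 min at room temperature. Calcium influx evoked by roughly an EC50 concentration of cinnamaldehyde was then read on FLIPR Tetra; IC50 came from curve fits with a fixed Hill coefficient.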

[1] = read-out: hTRPA1 IC50 (10 min), compounds incubated 10 minutes at room temperature before cinnamaldehyde agonist
[2] = read-out: hTRPA1 IC50 (90 min), compounds incubated 90 minutes at room temperature before cinnamaldehyde agonist

Chain of human TRPA1 channel (O75762 whole entry): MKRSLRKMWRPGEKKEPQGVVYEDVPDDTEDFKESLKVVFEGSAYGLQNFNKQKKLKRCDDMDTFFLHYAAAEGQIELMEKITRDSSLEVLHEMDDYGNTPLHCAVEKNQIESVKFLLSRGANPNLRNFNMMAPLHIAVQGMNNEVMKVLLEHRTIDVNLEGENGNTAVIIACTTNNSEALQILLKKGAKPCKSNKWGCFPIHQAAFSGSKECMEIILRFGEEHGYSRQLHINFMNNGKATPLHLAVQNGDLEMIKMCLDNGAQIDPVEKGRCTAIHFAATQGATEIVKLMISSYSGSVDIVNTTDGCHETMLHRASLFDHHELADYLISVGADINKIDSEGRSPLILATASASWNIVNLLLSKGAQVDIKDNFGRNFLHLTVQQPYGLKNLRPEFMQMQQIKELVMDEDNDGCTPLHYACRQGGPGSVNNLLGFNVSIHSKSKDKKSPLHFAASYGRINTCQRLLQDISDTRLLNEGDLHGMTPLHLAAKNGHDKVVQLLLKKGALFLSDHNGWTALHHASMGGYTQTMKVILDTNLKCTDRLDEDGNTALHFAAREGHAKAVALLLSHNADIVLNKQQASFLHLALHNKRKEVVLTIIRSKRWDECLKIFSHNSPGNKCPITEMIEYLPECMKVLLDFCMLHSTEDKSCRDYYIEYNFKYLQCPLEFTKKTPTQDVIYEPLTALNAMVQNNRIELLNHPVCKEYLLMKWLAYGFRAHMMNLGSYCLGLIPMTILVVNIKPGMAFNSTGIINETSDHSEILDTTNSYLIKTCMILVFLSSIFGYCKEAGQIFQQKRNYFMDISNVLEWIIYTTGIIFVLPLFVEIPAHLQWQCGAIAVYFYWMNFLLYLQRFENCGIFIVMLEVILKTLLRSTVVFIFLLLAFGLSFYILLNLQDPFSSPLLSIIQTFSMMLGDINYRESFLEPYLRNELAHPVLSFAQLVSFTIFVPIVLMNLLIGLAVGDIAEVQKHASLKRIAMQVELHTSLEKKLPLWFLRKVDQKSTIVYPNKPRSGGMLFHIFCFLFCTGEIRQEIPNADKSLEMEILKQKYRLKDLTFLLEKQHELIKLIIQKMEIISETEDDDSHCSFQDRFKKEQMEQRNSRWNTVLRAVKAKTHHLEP

Structure (SMILES)	IC50 [1] [nM]	IC50 (compounds incubated 90 minutes at room temperature before cinnamaldehyde agonist) [nM]	IC50 [2] [nM]	TRPA1 IC50 compared with 3-azabicyclo[3.1.0]hexene linker and cyclobutylene linker analogues
O=c1c2cccnc2cnn1Cc1nc([C@H]2[C@@H]3CN(c4cccc(Cl)c4)C[C@@H]32)no1 [Example Compound 214, 6-((3-((1R,5S,6r)-3-(3-chlorophenyl)-3-azabicyclo[3.1.0]hexan-6-yl)-1,2,4-oxadiazol-5-yl)methyl)pyrido[2,3-d]pyridazin-5(6H)-one]	2.88			
Cn1c(=O)c2c(ncn2Cc2nc([C@H]3[C@@H]4CN(c5cccc(Cl)c5)C[C@@H]43)no2)n(C)c1=O [Example Compound 215, 7-((3-((1R,5S,6r)-3-(3-chlorophenyl)-3-azabicyclo[3.1.0]hexan-6-yl)-1,2,4-oxadiazol-5-yl)methyl)-1,3-dimethyl-3,7-dihydro-1H-purine-2,6-dione]	56.5			
O=c1c2cccnc2ncn1Cc1nc([C@H]2[C@@H]3CN(c4cccc(Cl)c4)C[C@@H]32)no1 [Example Compound 216, 3-((3-((1R,5S,6r)-3-(3-chlorophenyl)-3-azabicyclo[3.1.0]hexan-6-yl)-1,2,4-oxadiazol-5-yl)methyl)pyrido[2,3-d]pyrimidin-4(3H)-one]	13.8	13		
Cn1cnc2ncn(Cc3nc([C@H]4C[C@H](Oc5cccc(Cl)c5)C4)no3)c(=O)c21 [Example Compound 217, 1-((3-((1r,3r)-3-(3-chlorophenoxy)cyclobutyl)-1,2,4-oxadiazol-5-yl)methyl)-7-methyl-1,7-dihydro-6H-purin-6-one]	38			
Cn1cnc2ncn(Cc3nc([C@H]4C[C@H](Oc5ccc(Cl)cc5)C4)no3)c(=O)c21 [Example Compound 218, 1-((3-((1r,3r)-3-(4-chlorophenoxy)cyclobutyl)-1,2,4-oxadiazol-5-yl)methyl)-7-methyl-1,7-dihydro-6H-purin-6-one]	24.9		13	
Cn1cnc2ncn(Cc3nc([C@H]4[C@@H]5CN(c6cc(Cl)c(F)cc6F)C[C@@H]54)no3)c(=O)c21 [Example Compound 219, 1-((3-((1R,5S,6r)-3-(5-chloro-2,4-difluorophenyl)-3-azabicyclo[3.1.0]hexan-6-yl)-1,2,4-oxadiazol-5-yl)methyl)-7-methyl-1,7-dihydro-6H-purin-6-one]	29.3		31	
Cn1cnc2ncn(Cc3nc([C@H]4C[C@H](c5ccc(F)c(Cl)c5)C4)no3)c(=O)c21 [Example Compound 220, 1-((3-((1r,3r)-3-(3-chloro-4-fluorophenyl)cyclobutyl)-1,2,4-oxadiazol-5-yl)methyl)-7-methyl-1,7-dihydro-6H-purin-6-one]	54.6			
Cn1cnc2ncn(Cc3nc([C@H]4[C@@H]5CN(c6ccc7scnc7c6)C[C@@H]54)no3)c(=O)c21 [Example Compound 221, 1-((3-((1R,5S,6r)-3-(benzo[d]thiazol-5-yl)-3-azabicyclo[3.1.0]hexan-6-yl)-1,2,4-oxadiazol-5-yl)methyl)-7-methyl-1,7-dihydro-6H-purin-6-one]	94		41	
Cn1cnc2ncn(Cc3nc([C@H]4[C@@H]5CN(c6c(F)ccc(Cl)c6F)C[C@@H]54)no3)c(=O)c21 [Example Compound 222, 1-((3-((1R,5S,6r)-3-(3-chloro-2,6-difluorophenyl)-3-azabicyclo[3.1.0]hexan-6-yl)-1,2,4-oxadiazol-5-yl)methyl)-7-methyl-1,7-dihydro-6H-purin-6-one]	29.7		6.7	
Cn1cnc2ncn(Cc3nc([C@H]4CC[C@H](c5ccc(Cl)cc5)C4)no3)c(=O)c21 [Example Compound 223, 1-((3-((1S,3S)-3-(4-chlorophenyl)cyclopentyl)-1,2,4-oxadiazol-5-yl)methyl)-7-methyl-1,7-dihydro-6H-purin-6-one]	22.2			
Cc1cccc(N2C[C@@H]3[C@H](C2)[C@H]3c2noc(Cn3cnc4ncn(C)c4c3=O)n2)c1 [Example Compound 224, 7-methyl-1-((3-((1R,5S,6r)-3-(m-tolyl)-3-azabicyclo[3.1.0]hexan-6-yl)-1,2,4-oxadiazol-5-yl)methyl)-1,7-dihydro-6H-purin-6-one]	71.6		19	
Cn1cnc2ncn(Cc3nc([C@H]4[C@@H]5C=C(c6ccccc6)C[C@@H]54)no3)c(=O)c21 [Example Compound 225, 7-methyl-1-((3-((1S,5S,6R)-3-phenylbicyclo[3.1.0]hex-2-en-6-yl)-1,2,4-oxadiazol-5-yl)methyl)-1,7-dihydro-6H-purin-6-one]	13.8		1.7	improved TRPA1 IC50 values
Cn1cnc2ncn(Cc3nc([C@@H]4[C@H]5C=C(c6ccccc6)C[C@H]54)no3)c(=O)c21 [Example Compound 226, 7-methyl-1-((3-((1R,5R,6S)-3-phenylbicyclo[3.1.0]hex-2-en-6-yl)-1,2,4-oxadiazol-5-yl)methyl)-1,7-dihydro-6H-purin-6-one]	21.6		9.9	improved TRPA1 IC50 values
Cc1ccnc2ncn(Cc3nc([C@@H]4[C@H]5C=C(c6ccccc6)C[C@H]54)no3)c(=O)c12 [Example Compound 227, 5-methyl-3-((3-((1R,5R,6S)-3-phenylbicyclo[3.1.0]hex-2-en-6-yl)-1,2,4-oxadiazol-5-yl)methyl)pyrido[2,3-d]pyrimidin-4(3H)-one]	14			
Cn1cnc2ncn(Cc3nc([C@H]4[C@@H]5CN(c6ccccn6)C[C@@H]54)no3)c(=O)c21 [Example Compound 228, 7-methyl-1-((3-((1R,5S,6r)-3-(pyridin-2-yl)-3-azabicyclo[3.1.0]hexan-6-yl)-1,2,4-oxadiazol-5-yl)methyl)-1,7-dihydro-6H-purin-6-one]	223		130	
Cn1cnc2ncn(Cc3nc([C@H]4[C@@H]5CN(c6ccc(Cl)c(F)c6)C[C@@H]54)no3)c(=O)c21 [Example Compound 229, 1-((3-((1R,5S,6r)-3-(4-chloro-3-fluorophenyl)-3-azabicyclo[3.1.0]hexan-6-yl)-1,2,4-oxadiazol-5-yl)methyl)-7-methyl-1,7-dihydro-6H-purin-6-one]	21.7		10	
O=c1c2ccncc2ncn1Cc1nc([C@H]2[C@@H]3CN(c4cccc(Cl)c4)C[C@@H]32)no1 [Example Compound 230, 3-((3-((1R,5S,6r)-3-(3-chlorophenyl)-3-azabicyclo[3.1.0]hexan-6-yl)-1,2,4-oxadiazol-5-yl)methyl)pyrido[3,4-d]pyrimidin-4(3H)-one]	33.1			
Cn1cnc2ncn(Cc3nc([C@H]4C[C@H](c5ccc6ccccc6c5)C4)no3)c(=O)c21 [Example Compound 231, 7-methyl-1-((3-((1r,3r)-3-(naphthalen-2-yl)cyclobutyl)-1,2,4-oxadiazol-5-yl)methyl)-1,7-dihydro-6H-purin-6-one]	57.3			
Cc1cncc2ncn(Cc3nc([C@H]4C[C@](O)(c5ccc6ccccc6c5)C4)no3)c(=O)c12 [Example Compound 232, 3-((3-((1s,3s)-3-hydroxy-3-(naphthalen-2-yl)cyclobutyl)-1,2,4-oxadiazol-5-yl)methyl)-5-methylpyrido[3,4-d]pyrimidin-4(3H)-one]			4.8	
Cc1ccnc2ncn(Cc3nc([C@H]4C[C@](O)(c5ccc6ccccc6c5)C4)no3)c(=O)c12 [Example Compound 233, 3-((3-((1s,3s)-3-hydroxy-3-(naphthalen-2-yl)cyclobutyl)-1,2,4-oxadiazol-5-yl)methyl)-5-methylpyrido[2,3-d]pyrimidin-4(3H)-one]	38.6			
Cn1cnc2ncn(Cc3nc([C@H]4[C@@H]5CN(c6cccc(-c7ccccc7)c6)C[C@@H]54)no3)c(=O)c21 [Example Compound 234, 1-((3-((1R,5S,6r)-3-([1,1′-biphenyl]-3-yl)-3-azabicyclo[3.1.0]hexan-6-yl)-1,2,4-oxadiazol-5-yl)methyl)-7-methyl-1,7-dihydro-6H-purin-6-one]	340			
Cn1cnc2ncn(Cc3nc([C@H]4[C@@H]5CN(c6cccc(C#N)c6)C[C@@H]54)no3)c(=O)c21 [Example Compound 235, 3-((1R,5S,6r)-6-(5-((7-methyl-6-oxo-6,7-dihydro-1H-purin-1-yl)methyl)-1,2,4-oxadiazol-3-yl)-3-azabicyclo[3.1.0]hexan-3-yl)benzonitrile]	73.5		17	
Cn1cnc2ncn(Cc3nc([C@H]4[C@@H]5CN(c6cccc(Cl)c6F)C[C@@H]54)no3)c(=O)c21 [Example Compound 236, 1-((3-((1R,5S,6r)-3-(3-chloro-2-fluorophenyl)-3-azabicyclo[3.1.0]hexan-6-yl)-1,2,4-oxadiazol-5-yl)methyl)-7-methyl-1,7-dihydro-6H-purin-6-one]	21.3		4.4	
Cn1cnc2ncn(Cc3nc([C@H]4[C@@H]5CN(c6ccc7sncc7c6)C[C@@H]54)no3)c(=O)c21 [Example Compound 237, 1-((3-((1R,5S,6r)-3-(benzo[d]isothiazol-5-yl)-3-azabicyclo[3.1.0]hexan-6-yl)-1,2,4-oxadiazol-5-yl)methyl)-7-methyl-1,7-dihydro-6H-purin-6-one]	18.2		2.1	
Cc1cc(N)nc2ncn(Cc3nc([C@H]4[C@@H]5C=C(c6ccccc6)C[C@@H]54)no3)c(=O)c12 [Example Compound 238, 7-amino-5-methyl-3-[[3-[(1S,5S,6R)-3-phenyl-6-bicyclo[3.1.0]hex-2-enyl]-1,2,4-oxadiazol-5-yl]methyl]pyrido[2,3-d]pyrimidin-4-one]	11.3		1.5	
